Data from US20050256168A1, “Compositions for oral administration for the treatment of interferon-responsive disorders” (priority 2004, published 2005).
pIC50: −log10 of the molar value. “Also recorded” adds a separate entry of the source. Like-named read-outs stand apart in the source and are kept apart here.

Legend:
HBV [1] = experiment: Secretion of enveloped HBV DNA into culture medium of Hep G2 2.2.15 cells; assay type: cell-based, hepatitis B virus; conditions: for pIC50: Hep G2 2.2.15 cells, 3 days, read-out: IC50 (anti-viral, HBV); for secretion of enveloped HBV (HBV rc DNA in culture medium): Hep G2 2.2.15, 3 days, alpha galactosyl ceramide 0.1-100 nM, N-9-oxadecyl-6-methyl-DGJ 0.8-25 μM, interferon alpha 10^3 iU/mL
Hep G2 2.2.15 cells = experiment: MTT toxicity test; assay type: cell-based
Protocol: A) Alpha galactosyl ceramide inhibits HBV in vitro. […] Briefly, Hep G2 2.2.15 cells, which secrete hepatitis B virus, were either left untreated or treated with 10^3 iU/mL of interferon alpha (2a/2b) or 0.1 nM to 100 nM of alpha galactosyl ceramide for three days and the amount of HBV specific DNA detected in the culture medium using a method which discriminates between enveloped and non enveloped viral particles. The HBV rc DNA, which decreases with both interferon and alpha galactose ceramide treatment is indicated. […] Hep G2 2.2.15 cells were left untreated or treated with varying doses of the synthetic glycolipid N-9-oxadecyl-6-methyl-DGJ (0.8 μM to 25 μM) for 3 days and the level of HBV secreted into the culture medium detected as before. […] The HBV rc DNA, which decreases with N-9-oxadecyl-6-methyl-DGJ, interferon, and alpha galactosyl ceramide treatment is indicated. C-D) Cells treated with alpha-galactosyl ceramide or the synthetic glycolipid N-9-oxadecyl-6-methyl-DGJ were tested for viability using the standard MTT toxicity test. For panel C: X-axis: From left to right: Untreated cells; Alpha galactosyl ceramide at 10 μM, 5 μM, 2.5 μM, 1 μM, 0.5 μM, 0.1 μM. Y-axis, percent viability as compared to untreated group. For Panel D: X-axis: From left to right: Untreated cells; N-9-oxadecyl-6-methyl-DGJ at 2000 μM, 800 μM. 400 μM, 200 μM, 100 μM, 10 μm. Y-axis, percent viability as compared to untreated group.
Toxicity was determined by mitochondrial toxicity testing (MTT) of cells that had been exposed to compounds in a manner similar to the anti-viral assays except cells were treated in 24 well trays. Briefly, Hep G2 2.2.15 cells were treated with drug as indicated in the figure legends for 3 days, the media removed and replaced with 100 μl of a 10 mg/ml solution of tetrazolium bromide [[3-[4,5-dimethylthiazol-2-yl]-2,5-diphenyltetrazolium bromide, Sigma Chemicals] for one hour at 37° C. Addition of 100-200 μl of dimethylsulfoxide (DMSO) led to color development. Supernatants were removed and placed in a 96 well tray for analysis. OD values were read at 590 nm.

2′,5′ OAS gene = experiment: Induction of 2′,5′ OAS genes in Hep G2 cells by R/T PCR and Southern blot-R/T PCR; conditions: 16 hours; for induction of medium (p69) and small (p40) 2′,5′ OAS genes: R/T PCR
Protocol: Hep G2 cells were treated with the indicated doses of A) alpha galactosyl ceramide or with B) N-9-oxadecyl-6-methyl-DGJ (b) for 16 hours and the induction of the medium (p69) and small (p40) isoforms of the […] OAS gene determined by R/T PCR. For each set, actin levels were also monitored as a control for loading. […] C) Southern blot- R/T PCR of RNA from Hep G2 cells treated with the indicated concentration of N-9-oxadecyl-6-methyl-DGJ or with 10^3 iU/mL interferon alpha (2a/2b) for 16 hours. Briefly, limited PCR was performed as described for 5, 10, 15 cycles and the PCR products transferred to nylon membrane before hybridization with a 1377 bp cDNA probe from nucleotides 1 to 1377 from the published OAS-40/46 gene (accession #X02874). Actin controls were performed in the same manner.
The ability of alpha galactosyl ceramide and N-9-oxadecyl-6-methyl-DGJ to directly induce the innate host defense pathway in tissue culture was determined by analysis of the induction of the 2′-5′ oligoadenylate synthetase genes (2′,5′ OAS) using an RT PCR based methodology.
Briefly, Hep G2 cells were incubated with either alpha galactose ceramide or the synthetic glycolipids shown in FIG. 1 for the desired length of time and the total RNA harvested using Tri-reagent as per manufactures directions (Gibco-BRL, Rockville, Md., USA). RNA samples were further purified using the Ambion DNA™ free kit, (Ambion, Inc., Austin, Tex., USA) before reverse transcriptase (RT) PCR with the PCR conditions and primers exactly as reported in the literature. PCR was performed in the absence of (RT) for 50 cycles to ensure no DNA contamination. Dilution experiments were used to ensure that PCR was within the linear range of the assay. Southern blot-R/T PCR of RNA from Hep G2 cells treated with the indicated concentration of N-9-oxadecyl-6-methyl-DGJ or with interferon alpha (2a/2b) for 16 hours was also performed to allow for quantification of induction. Briefly, limited PCR was performed as described above for 5, 10, 15 cycles and the PCR products transferred to nylon membrane. Hybridization was carried out using a 1377 bp cDNA probe from nucleotides I to 1377 from the published OAS40/46 gene (accession #X02874). OAS-40/46 specific bands were identified and quantified by phosphor image analysis [Bio-Rad, Hercules, Calif.].

HCV replicon = experiment: HCV subgenomic replicon RNA level in 9-13 cells (Northern blot); assay type: cell-based, hepatitis C virus; conditions: 48 hours
Protocol: A) Total RNA was isolated, resolved through agarose gels and hybridized to a radioactive probe specific for HCV NS5B. After washing, the blot was and re-probed with radioactive beta-actin specific sequences to control for loading of lanes.
Beta-actin protein and RNA were used as controls in these experiments.
9-13 cells were seeded in T25 flask at 3×10^6 cells. […] Northern blot analysis was done to analyze HCV replicon RNA level.
Briefly, 2 μg total RNA was electrophoresed through a 1.0% agarose gel containing 2.2 M formaldehyde, transferred to a nylon membrane and immobilized by Lw cross-linking (Stratagene). Hybridization was carried out using an alpha-[^32P]CTP-labeled probe with random primers on a 2 kb NS5B DNA fragment in a quick hybridization solution (Amersham Bioscience, Piscataway, N.J.) for 16 h at 65° C. The membranes were washed once in 2×SSC/0.1% SDS for 30 min at room temperature and twice in 0.1×SSC/0.1% SDS for 30 min at 65° C.

[2] = tested on: HBsAg, core antigen, HBV polymerase; experiment: Effect on HBsAg and core antigen production or secretion and HBV polymerase activity; assay type: cell-based, hepatitis B virus; conditions: at concentrations that were highly anti-viral
From the text: Both alpha galactosyl ceramide and the “alkovirs”, described herein, have anti-hepatitis B virus activity (FIG. 2).
This indicates both that the compounds were both well tolerated at these concentrations and that the anti-viral activity cannot be explained by a direct effect upon the synthesis of viral products but rather through the activation of a cellular defense mechanism.

[3] = tested on: bovine viral diarrhea virus (BVDV); experiment: BVDV antiviral activity in tissue cultures of infected MDBK cells; assay type: cell-based
From the text: The IC50 for 6-O-nonyl-deoxynojirimycin, for example, bovine viral diarrhea virus (BVDV), in tissue cultures of BVDV infected MDBK cells, a surrogate of hepatitis C virus is 3 micro-molar.

glucosidase = experiment: Glucosidase inhibitory activity; assay type: biochemical
HBV [4] = conditions: from Antimicrob Agents Chemother. 2002; 46(12): 4004-4008; cited from earlier work

**Q.** With COCCCCCCCCN1CC(O)C(O)C(O)C1C(C)O (centres unmarked) [N-9-oxadecyl-6-methyl-DGJ] as the molecule, how does the pIC50 (HBV [1]) read?
**A.** ~6.00

**Q.** What about the “secretion of enveloped HBV (HBV rc DNA in culture medium)” value (HBV [1]) of the same molecule?
**A.** exerted anti-viral activity at varying doses

**Q.** And the CC50 (Hep G2 2.2.15 cells)?
**A.** > 2000 µM

**Q.** And the toxicity (Hep G2 2.2.15 cells)?
**A.** little or no toxicity

**Q.** And the “fold induction of the 2′,5′ OAS gene” value (2′,5′ OAS gene; 70 μM, Southern blot-R/T PCR)?
**A.** 20 fold

**Q.** What about the “induction of medium (p69) and small (p40) 2′,5′ OAS genes” value (shortened to “induction of medium (p69) and small”) (2′,5′ OAS gene) of the same molecule?
**A.** induced only the small (p40) 2′,5′ OAS gene expression

**Q.** And the “fold increase in 2′,5′ OAS gene expression” value (2′,5′ OAS gene; lower concentrations (below 70 μM), dose dependent)?
**A.** 2-15 fold

**Q.** What about the pIC50 (HCV replicon; 9-13 cells, three separate experiments, read-out: IC50 for reduction of HCV RNA) of the same molecule?
**A.** 5.82

**Q.** And the “effect upon HBsAg production or secretion, core antigen production or secretion or HBV polymerase activity” value [2]?
**A.** Neither Alpha Galactosyl Ceramide or N-9-oxadecyl-6-methyl-DGJ had any Detectable Effect

**Q.** What does the source list for interferon alpha?
**A.** secretion of enveloped HBV (HBV rc DNA in culture medium) (HBV [1]): inhibits secretion effectively; induction of medium (p69) and small (p40) 2′,5′ OAS genes (2′,5′ OAS gene): potent inducer of both the medium (p69) and small (p40) 2′,5′ OAS genes; replication of HCV RNA in 9-13 cells (HCV replicon): sensitive to interferon alpha

**Q.** With CCCCCCCCCCCCCCCCCCCCCCCCCC(=O)N[C@@H](CO[C@H]1O[C@H](CO)[C@H](O)[C@H](O)[C@H]1O)[C@H](O)[C@H](O)CCCCCCCCCCCCCC [alpha galactosyl ceramide, reference compound] as the molecule, how does the pIC50 (HBV [1]) read?
**A.** ~9.40

**Q.** And the “secretion of enveloped HBV (HBV rc DNA in culture medium)” value (HBV [1])?
**A.** inhibited the secretion of enveloped HBV

**Q.** And the toxicity (Hep G2 2.2.15 cells; FIG. 2-3)?
**A.** little or no toxicity

**Q.** And the CC50 (Hep G2 2.2.15 cells; Hep G2 2.2.15 cells, 3 days, MTT, read-out: CC50)?
**A.** 8 µM

**Q.** And the “induction of medium (p69) and small” value (2′,5′ OAS gene)?
**A.** induced only the small (p40) 2′,5′ OAS gene expression

**Q.** What about the “effect upon HBsAg production or secretion, core antigen production or secretion or HBV polymerase activity” value [2] of the same molecule?
**A.** Neither Alpha Galactosyl Ceramide or N-9-oxadecyl-6-methyl-DGJ had any Detectable Effect

**Q.** With CCCCCCCCCOCC1NCC(O)C(O)C1O (centres unmarked) [6-O-nonyl-deoxynojirimycin] as the molecule, how does the pIC50 ([3]; BVDV infected MDBK cells, surrogate of hepatitis C virus, read-out: IC50 against BVDV) read?
**A.** 5.52

**Q.** And the antiviral activity ([3]; virus not named at b41, BVDV assumed)?
**A.** retains antiviral activity

**Q.** And the glucosidase inhibitory activity (glucosidase)?
**A.** no glucosidase inhibitory activity

**Q.** With CCOCCCCCCN1CC(O)C(O)C(O)C1C(C)O (centres unmarked) [N-7-oxanonyl-6-methyl-DGJ] as the molecule, how does the “induction of medium (p69) and small” value (2′,5′ OAS gene) read?
**A.** did not detectably induce 2′,5′ OAS gene expression

**Q.** And the “anti-viral activity against hepatitis B virus” value (HBV [4])?
**A.** no anti-viral activity against hepatitis B virus; also recorded: limited anti viral activity against HBV
